Measurements published in ChEMBL document CHEMBL1201862, “PubChem BioAssay data set” (2004).
The source made the active and inactive calls.

How the values were obtained:
[1] = target: T1, Endoribonuclease toxin MazF (Escherichia coli K-12, UniProt P0AE70); test: substrate-only fluorescence increase artefacts – biochemical, single-stranded RNase substrate, counter-screen for MazEF activator project, dose response (AID 588502); type: functional
T1 sequence (P0AE70 whole entry): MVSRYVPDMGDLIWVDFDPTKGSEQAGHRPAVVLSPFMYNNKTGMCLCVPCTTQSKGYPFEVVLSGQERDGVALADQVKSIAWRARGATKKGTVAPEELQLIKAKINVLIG

[2] = target: T1, Endoribonuclease toxin MazF; test: activation of MazEF endoribonuclease cleavage – biochemical, fluorescence, single-stranded RNA substrate, uHTS hits, dose response (AID 588481); type: functional
Cytochrome P450 3A4 = Cytochrome P450 3A4 (Homo sapiens, UniProt P08684);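 note: CYP3A4 tested as one member of a cytochrome P450 panel screen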
Cytochrome P450 3A4, sequence (P08684 whole entry): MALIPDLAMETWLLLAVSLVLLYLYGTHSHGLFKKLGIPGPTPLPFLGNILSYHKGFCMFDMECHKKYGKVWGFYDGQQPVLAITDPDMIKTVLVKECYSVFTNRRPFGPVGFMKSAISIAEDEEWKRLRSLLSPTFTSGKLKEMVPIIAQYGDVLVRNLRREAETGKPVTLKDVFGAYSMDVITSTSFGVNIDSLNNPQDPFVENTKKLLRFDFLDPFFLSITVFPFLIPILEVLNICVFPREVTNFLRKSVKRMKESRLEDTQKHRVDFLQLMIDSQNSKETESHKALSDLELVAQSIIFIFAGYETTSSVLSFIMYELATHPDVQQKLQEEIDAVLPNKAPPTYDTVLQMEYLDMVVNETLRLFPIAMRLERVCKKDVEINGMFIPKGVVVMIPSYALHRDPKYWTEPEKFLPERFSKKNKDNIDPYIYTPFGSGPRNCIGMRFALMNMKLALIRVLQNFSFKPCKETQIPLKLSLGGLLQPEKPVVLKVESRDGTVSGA

[3] = target: T2, Corticotropin-releasing factor receptor 2/Corticotropin-releasing factor-binding protein (Homo sapiens, UniProt P24387+Q13324); test: Dose Response confirmation of uHTS hits for small molecule antagonists of the CRF-binding protein and CRF-R2 receptor complex.; type: functional; conditions: read-out: IC50_Mean
T2 sequence (Q13324 whole entry): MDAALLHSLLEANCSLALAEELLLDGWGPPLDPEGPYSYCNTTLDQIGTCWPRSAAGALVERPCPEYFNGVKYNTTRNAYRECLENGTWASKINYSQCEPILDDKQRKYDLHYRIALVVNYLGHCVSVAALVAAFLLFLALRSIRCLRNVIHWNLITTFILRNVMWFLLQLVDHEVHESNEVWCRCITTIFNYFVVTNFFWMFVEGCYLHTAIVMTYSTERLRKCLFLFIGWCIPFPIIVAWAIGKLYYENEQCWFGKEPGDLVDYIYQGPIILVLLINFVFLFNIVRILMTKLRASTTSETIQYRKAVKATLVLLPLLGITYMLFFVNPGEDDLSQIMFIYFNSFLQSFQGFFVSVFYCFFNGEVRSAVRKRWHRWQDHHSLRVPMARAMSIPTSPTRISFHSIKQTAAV
T2 sequence (P24387 whole entry): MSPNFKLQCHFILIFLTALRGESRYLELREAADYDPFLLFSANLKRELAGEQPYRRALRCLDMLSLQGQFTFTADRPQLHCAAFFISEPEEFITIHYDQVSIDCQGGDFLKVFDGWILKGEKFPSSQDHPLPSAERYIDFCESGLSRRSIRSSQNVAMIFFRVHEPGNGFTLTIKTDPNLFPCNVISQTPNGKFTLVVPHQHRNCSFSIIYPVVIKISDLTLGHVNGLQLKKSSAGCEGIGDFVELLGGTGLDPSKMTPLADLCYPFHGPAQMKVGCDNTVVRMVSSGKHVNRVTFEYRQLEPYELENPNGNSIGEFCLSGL

[4] = target: T2, Corticotropin-releasing factor receptor 2/Corticotropin-releasing factor-binding protein; test: activators of CRF receptor 2 with binding protein – uHTS hits, confirmation (AID 602473); type: functional; conditions: read-out: EC50_Mean
Protein skinhead-1 = target: T3, Protein skinhead-1 (Caenorhabditis elegans, UniProt P34707); type: functional
T3 sequence (P34707 whole entry): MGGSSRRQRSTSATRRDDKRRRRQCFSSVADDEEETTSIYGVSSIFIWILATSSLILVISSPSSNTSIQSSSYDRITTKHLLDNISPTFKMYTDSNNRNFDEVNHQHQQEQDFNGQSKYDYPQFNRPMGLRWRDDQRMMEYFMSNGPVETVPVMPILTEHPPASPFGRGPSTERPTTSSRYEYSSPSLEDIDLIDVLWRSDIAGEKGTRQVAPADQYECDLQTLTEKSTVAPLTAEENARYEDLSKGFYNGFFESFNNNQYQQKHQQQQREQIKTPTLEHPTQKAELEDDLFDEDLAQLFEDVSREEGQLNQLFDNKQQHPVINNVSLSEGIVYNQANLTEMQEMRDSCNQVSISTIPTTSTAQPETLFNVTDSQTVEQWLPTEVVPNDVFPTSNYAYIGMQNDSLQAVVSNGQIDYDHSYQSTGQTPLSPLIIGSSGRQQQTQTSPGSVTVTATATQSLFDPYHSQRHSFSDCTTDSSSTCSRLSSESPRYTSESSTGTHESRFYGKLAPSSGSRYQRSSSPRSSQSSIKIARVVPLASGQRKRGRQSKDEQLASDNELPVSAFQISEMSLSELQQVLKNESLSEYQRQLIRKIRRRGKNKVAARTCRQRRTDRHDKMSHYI

[5] = target: T4, Short transient receptor potential channel 4 (Mus musculus, UniProt Q9QUQ5); test: block of DAMGO-driven TRPC4 calcium entry – cell-based, HEK293 TRPC4/mu-opioid, Fluo-4 calcium, dose response (AID 434942); type: functional;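 note: potency of inhibitors blocking the TRPC4 calcium response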
T4 sequence (Q9QUQ5 whole entry): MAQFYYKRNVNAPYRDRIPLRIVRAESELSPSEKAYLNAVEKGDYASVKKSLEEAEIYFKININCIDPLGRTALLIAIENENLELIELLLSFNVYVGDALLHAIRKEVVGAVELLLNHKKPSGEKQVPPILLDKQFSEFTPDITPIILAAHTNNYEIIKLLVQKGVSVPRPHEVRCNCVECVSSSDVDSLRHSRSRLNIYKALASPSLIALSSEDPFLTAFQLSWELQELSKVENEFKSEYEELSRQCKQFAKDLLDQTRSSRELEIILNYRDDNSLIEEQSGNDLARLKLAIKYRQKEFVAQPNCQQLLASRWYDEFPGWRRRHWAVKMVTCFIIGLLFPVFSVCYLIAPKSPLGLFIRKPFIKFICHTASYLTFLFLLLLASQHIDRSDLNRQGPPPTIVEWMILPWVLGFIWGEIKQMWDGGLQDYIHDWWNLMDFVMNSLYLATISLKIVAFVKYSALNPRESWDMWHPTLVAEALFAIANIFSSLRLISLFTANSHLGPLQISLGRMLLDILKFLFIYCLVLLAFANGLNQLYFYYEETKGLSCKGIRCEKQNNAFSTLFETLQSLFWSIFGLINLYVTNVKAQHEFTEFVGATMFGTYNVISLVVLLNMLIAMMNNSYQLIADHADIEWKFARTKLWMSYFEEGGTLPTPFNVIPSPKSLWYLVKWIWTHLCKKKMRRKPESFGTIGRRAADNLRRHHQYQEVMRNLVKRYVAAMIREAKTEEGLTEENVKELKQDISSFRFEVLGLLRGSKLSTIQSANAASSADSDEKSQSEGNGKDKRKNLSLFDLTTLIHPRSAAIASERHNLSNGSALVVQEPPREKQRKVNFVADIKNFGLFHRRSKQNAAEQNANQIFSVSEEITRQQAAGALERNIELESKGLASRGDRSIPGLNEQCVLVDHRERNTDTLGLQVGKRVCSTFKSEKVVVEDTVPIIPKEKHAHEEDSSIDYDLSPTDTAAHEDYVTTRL

[6] = blockers of CRF-binding protein–CRF-R2 complex – cell-based, uHTS hits, 384-well, dose response (AID 651639); type: functional, Homo sapiens; conditions: read-out: IC50_Mean
Nonstructural protein 1 = Nonstructural protein 1 (Influenza A virus, UniProt Q194T2); type: functional, Influenza A virus (A/California/07/2009(H1N1))
Nonstructural protein 1, sequence (Q194T2 whole entry): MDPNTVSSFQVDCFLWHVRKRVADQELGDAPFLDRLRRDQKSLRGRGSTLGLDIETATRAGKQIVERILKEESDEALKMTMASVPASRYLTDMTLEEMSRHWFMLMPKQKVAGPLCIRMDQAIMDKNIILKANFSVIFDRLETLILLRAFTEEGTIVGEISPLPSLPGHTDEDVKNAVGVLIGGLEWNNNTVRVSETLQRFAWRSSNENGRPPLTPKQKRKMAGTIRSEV

cells = type: functional, cell-based
[7] = target: T5, Heat shock factor protein 1 (Mus musculus, UniProt P38532); test: decrease of HSF1-responsive luciferase luminescence – cell-based, NIH3T3, dose retest, confirmation (AID 2382); type: functional;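 note: NIH3T3 fibroblasts with HSF1-driven luciferase reporter stressed by proteasome inhibitor MG132; luminescence from HSF1-driven luciferase expression after 8 hours of MG132 stress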
T5 sequence (P38532 whole entry): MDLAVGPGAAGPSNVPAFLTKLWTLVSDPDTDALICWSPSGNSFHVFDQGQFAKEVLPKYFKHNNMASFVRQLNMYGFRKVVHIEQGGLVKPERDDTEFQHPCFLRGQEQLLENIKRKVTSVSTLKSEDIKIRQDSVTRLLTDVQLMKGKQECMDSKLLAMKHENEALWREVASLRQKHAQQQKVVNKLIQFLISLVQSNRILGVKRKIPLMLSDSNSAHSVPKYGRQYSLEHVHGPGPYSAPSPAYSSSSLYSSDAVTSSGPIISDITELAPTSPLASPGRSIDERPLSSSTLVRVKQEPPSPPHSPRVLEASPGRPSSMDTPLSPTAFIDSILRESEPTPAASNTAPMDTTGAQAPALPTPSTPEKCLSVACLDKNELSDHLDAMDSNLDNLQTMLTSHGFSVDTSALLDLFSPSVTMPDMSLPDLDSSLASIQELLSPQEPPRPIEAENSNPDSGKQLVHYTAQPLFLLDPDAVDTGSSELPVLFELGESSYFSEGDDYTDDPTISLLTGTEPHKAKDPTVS

[8] = target: T6, Calpain-2 catalytic subunit (Sus scrofa, UniProt P43367); test: m-calpain protease blockers, concentration series – biochemical, fluorogenic peptide substrate, dose response (AID 1420); type: functional
T6 sequence (P43367 whole entry): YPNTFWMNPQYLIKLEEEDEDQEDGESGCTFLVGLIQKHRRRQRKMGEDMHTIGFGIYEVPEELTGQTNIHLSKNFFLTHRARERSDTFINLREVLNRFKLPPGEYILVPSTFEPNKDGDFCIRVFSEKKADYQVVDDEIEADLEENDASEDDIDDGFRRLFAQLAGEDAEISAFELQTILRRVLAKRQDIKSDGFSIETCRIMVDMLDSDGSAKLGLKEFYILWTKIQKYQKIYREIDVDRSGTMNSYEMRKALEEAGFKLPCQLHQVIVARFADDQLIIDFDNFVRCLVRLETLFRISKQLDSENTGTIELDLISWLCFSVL

[9] = target: T7, Histone-lysine N-methyltransferase NSD2 (Homo sapiens, UniProt O96028); type: biochemical
T7 sequence (O96028 whole entry): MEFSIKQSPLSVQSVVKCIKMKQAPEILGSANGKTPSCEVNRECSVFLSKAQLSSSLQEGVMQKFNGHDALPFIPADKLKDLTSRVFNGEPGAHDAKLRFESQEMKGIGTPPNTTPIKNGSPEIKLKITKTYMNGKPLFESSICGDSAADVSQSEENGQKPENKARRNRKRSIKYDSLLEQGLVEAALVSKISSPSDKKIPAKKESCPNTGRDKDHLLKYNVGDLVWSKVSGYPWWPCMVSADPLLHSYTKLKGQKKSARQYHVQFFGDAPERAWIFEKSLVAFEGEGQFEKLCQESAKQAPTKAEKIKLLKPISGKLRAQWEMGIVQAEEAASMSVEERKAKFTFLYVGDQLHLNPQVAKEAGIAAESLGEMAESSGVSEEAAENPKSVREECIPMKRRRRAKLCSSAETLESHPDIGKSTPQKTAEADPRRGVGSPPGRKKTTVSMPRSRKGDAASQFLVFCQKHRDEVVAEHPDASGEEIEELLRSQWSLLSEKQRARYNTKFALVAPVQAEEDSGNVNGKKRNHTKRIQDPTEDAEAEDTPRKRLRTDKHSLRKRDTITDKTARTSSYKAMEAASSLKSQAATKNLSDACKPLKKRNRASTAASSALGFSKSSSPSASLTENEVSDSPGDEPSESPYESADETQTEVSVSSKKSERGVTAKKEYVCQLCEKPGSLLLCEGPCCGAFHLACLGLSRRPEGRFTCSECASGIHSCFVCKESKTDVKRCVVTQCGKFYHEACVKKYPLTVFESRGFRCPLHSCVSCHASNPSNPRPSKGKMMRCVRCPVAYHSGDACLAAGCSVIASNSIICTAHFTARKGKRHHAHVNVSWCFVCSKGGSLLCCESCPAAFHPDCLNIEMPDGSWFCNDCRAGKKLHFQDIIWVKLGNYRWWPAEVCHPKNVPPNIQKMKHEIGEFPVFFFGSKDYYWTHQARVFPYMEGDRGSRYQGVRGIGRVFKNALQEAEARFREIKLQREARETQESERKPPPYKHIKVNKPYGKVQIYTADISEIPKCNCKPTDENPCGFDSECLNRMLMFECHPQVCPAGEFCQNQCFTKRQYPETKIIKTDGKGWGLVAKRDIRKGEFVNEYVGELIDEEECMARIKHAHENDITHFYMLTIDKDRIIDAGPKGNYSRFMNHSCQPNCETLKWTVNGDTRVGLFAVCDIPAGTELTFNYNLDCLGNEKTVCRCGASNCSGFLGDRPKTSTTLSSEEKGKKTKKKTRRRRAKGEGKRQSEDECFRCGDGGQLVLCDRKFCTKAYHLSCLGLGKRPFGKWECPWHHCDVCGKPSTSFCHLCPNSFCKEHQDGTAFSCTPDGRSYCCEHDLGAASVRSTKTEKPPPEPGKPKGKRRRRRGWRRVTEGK

Vero = test: viability of Vero cells under compound – cytotoxicity control for flavivirus capping enzyme inhibitors (AID 588742); type: functional; conditions: Chlorocebus sabaeus

Cc1ccc2cc3c(N)c(C(=O)Nc4c(C)[nH]c(=O)[nH]c4=O)sc3nc2c1
EC50 [1]: > 99 µM (inactive)
EC50 [2]: > 99 µM (inactive)

Cc1cc([N+](=O)[O-])ccc1NCc1ccccc1
AC50 (Cytochrome P450 3A4): 14.1 µM (inconclusive)
IC50 [3]: 4.41 µM (active)
EC50 [4]: > 53 µM (inactive)
IC50 (Protein skinhead-1): 66.9 µM (inactive)
EC50 [5]: 0.841 µM (active)
IC50 [6]: 8.31 µM (active)

Cc1ccc(O)c(/C=N/NC(=O)CN2CCCC2)c1
IC50 (Nonstructural protein 1): 15.3 µM (active)
EC50 (cells): 104 µM (active)
EC50 [7]: > 195 µM (not active)

CC(=O)n1c(/C=N/c2ccc(Cl)cc2)c(O)c2ccccc21
EC50 [1]: 31.1 µM (inactive)
EC50 [2]: > 99 µM (inactive)

Cc1nn(-c2ccccc2)c2c1C(c1ccc(Br)s1)C(C#N)=C(N)O2 (centres undefined)
IC50 (Nonstructural protein 1): 76.2 µM (active)
IC50 [8]: > 50 µM (not active)

CCOC(=O)C1=C(C)N=c2s/c(=C/c3cccc([N+](=O)[O-])c3O)c(=O)n2C1c1ccccc1 (centres undefined)
IC50 (Nonstructural protein 1): 22.1 µM (active)
AC50 [9]: > 20 µM (inactive)
CC50 (Vero): 31.1 µM (active)

O=C1NC(=S)N(C2CC2)C(=O)/C1=C/NNC(=O)c1ccccc1O
IC50 (Nonstructural protein 1): 16.2 µM (active)
